PubChem BioAssay (NCI)
Where “and” joins values, the source holds several entries; their conditions need not be identical. Identical values can stand only once.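 Assay format: 96-well plates, 48-hour exposure. At the GI50, growth is halved. At the TGI there is no net growth.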

Tests used:
Assay in all cases: NCI-60 cell line screen, 48 h
MOLT-4 leukemia = tested on: MOLT-4 leukemia
HL-60(TB) leukemia = tested on: HL-60(TB) leukemia
EKVX NSCLC = tested on: EKVX NSCLC
NCI/ADR-RES ovarian = tested on: NCI/ADR-RES ovarian
UO-31 renal = tested on: UO-31 renal
U251 CNS = tested on: U251 CNS
SK-MEL-2 melanoma = tested on: SK-MEL-2 melanoma
HCC-2998 colon = tested on: HCC-2998 colon
UACC-62 melanoma = tested on: UACC-62 melanoma
OVCAR-4 ovarian = tested on: OVCAR-4 ovarian
DU-145 prostate = tested on: DU-145 prostate
RPMI-8226 leukemia = tested on: RPMI-8226 leukemia
T-47D breast = tested on: T-47D breast

Compound | TGI (MOLT-4 leukemia) [µM] | TGI (HL-60(TB) leukemia) [µM] | TGI (EKVX NSCLC) [µM] | TGI (NCI/ADR-RES ovarian) [µM] | TGI (UO-31 renal) [µM] | TGI (U251 CNS) [µM] | TGI (SK-MEL-2 melanoma) [µM] | TGI (HCC-2998 colon) [µM] | TGI (UACC-62 melanoma) [µM] | TGI (OVCAR-4 ovarian) [µM] | TGI (DU-145 prostate) [µM] | TGI (RPMI-8226 leukemia) [µM] | TGI (T-47D breast) [µM] | GI50 (NCI/ADR-RES ovarian) [µM] | GI50 (U251 CNS) | GI50 (T-47D breast) | GI50 (MOLT-4 leukemia) [µM] | GI50 (RPMI-8226 leukemia) [µM] | GI50 (UACC-62 melanoma) [µM]
CC1=C2C3OC(=O)C(C)C3CCC2(C)C=CC1=Nc1ccccc1 (stereo not given) | > 100 | > 100 | > 100 | > 100 | > 100 | > 100 | > 100 | > 100 | > 100 | > 100 |  |  |  |  |  |  |  |  | 
CCOC(=O)C(OP(=O)(OCC)OCC)C(F)(F)F (stereo not given) | > 100 | > 100 | > 100 |  | > 100 | > 100 | > 100 | > 100 | > 100 |  | > 100 | > 100 | > 100 |  |  |  |  |  | 
c1ccc([P+](c2ccccc2)(c2ccccc2)C2c3ccccc3-c3ccccc32)cc1 | 7.12 | 3.92 |  | 41.9 | 8.03 | 4.12 | 3.87 | 9.62 | 5.02 |  | 60.6 |  | 12.5 |  |  |  |  |  | 
CCOC(=O)C(CCc1ncnc2c1ncn2Cc1ccccc1)(CCc1ncnc2c1ncn2Cc1ccccc1)C(=O)OCC | > 100 | > 100 | > 100 | > 100 | 10.9 | > 100 | > 100 | 54.8 | > 100 | > 100 | > 100 | > 100 |  |  |  |  |  |  | 
CC(=O)Nc1ccc(Sc2nnc(NC(C)=O)s2)cc1 | > 100 | > 100 | > 100 | > 100 | > 100 | > 100 |  | > 100 |  | > 100 |  | > 100 | > 100 |  |  |  |  |  | 
O=c1ccnc2ccc3n[nH][nH]c3c12 | > 100 | > 100 | > 100 |  |  | > 100 | > 100 | > 100 | > 100 | > 100 |  | > 100 |  |  |  |  |  |  | 
CCCCCCCCOC(=O)c1cc([N+](=O)[O-])c(Sc2ncnc3nc[nH]c23)c([N+](=O)[O-])c1 | 16.2 | 9.82 | 26.8 | 25.7 | 19.9 | 17.3 | 17.7 | 16.2 | 17 | 13.5 | 18.6 | 8.54 | 3.31 |  |  |  |  |  | 
COc1cc2c[n+](C)c3c4cc(OC)c(OC)cc4ccc3c2cc1OC | > 100 |  | > 100 | > 100 | > 100 | > 100 | > 100 | > 100 | > 100 | > 100 | > 100 | > 100 | > 100 | > 100 | 14.3 µM and 7.05 µM | > 100 µM and 10.1 µM |  |  | 
C=CCCCCCCCCC(=O)O | 265 | 231 | 255 | 558 | 162 | 242 | 152 | 202 | 190 | 341 |  | 352 |  |  |  |  |  |  | 
CN(C(=O)c1ccc(OCCCC(=O)O)c(Cl)c1Cl)C1CCCC1 | > 100 | > 100 | > 100 | > 100 | > 100 | > 100 | > 100 | > 100 | > 100 | > 100 |  | > 100 |  |  |  |  |  |  | 
Cn1c(=O)c(Cl)c(N=[N+]=[N-])c2ccccc21 | > 100 |  | > 100 | > 100 | > 100 | > 100 | > 100 | > 100 | > 100 | > 100 | > 100 |  | > 100 |  |  |  |  |  | 
COC1=CC(=O)C2=C(C[C@@]3(C)C(=C2)C(CO)=CC[C@H]3O)C1=O | 2.49 | 14.1 | 38.8 | 56.1 | 39.5 | 41.6 |  | 83.1 | 32.4 | 31.8 | > 100 | 44.5 | > 100 |  |  |  |  |  | 
CC(=O)OCC1OC(n2nc(Cc3ccccc3)c(=S)[nH]c2=S)C(OC(C)=O)C(OC(C)=O)C1OC(C)=O (stereo not given) | > 100 | 27.2 |  | > 100 | 51.7 | 73.4 | 35.1 |  | 35.5 | 39.6 | 64.3 |  | 60.2 |  |  |  |  |  | 
CNC(=O)NS(=O)(=O)c1ccc(C)cc1 | > 100 | > 100 |  | > 100 | > 100 | > 100 | > 100 |  | > 100 | > 100 | > 100 | > 100 | > 100 |  |  |  |  |  | 
O=c1oc2ccc([N+](=O)[O-])cc2cc1Br | > 100 | > 100 | > 100 | > 100 | > 100 | > 100 | > 100 | > 100 | > 100 | > 100 | > 100 | > 100 | > 100 |  |  |  |  |  | 
O=[N+]([O-])c1cccc(N=Nc2c(O)ccc3ccccc23)c1 | > 100 |  | > 100 | > 100 | > 100 | > 100 | > 100 |  | > 100 | > 100 | > 100 | > 100 | > 100 |  |  |  |  |  | 
O=c1c([OH2+])c(-c2ccc(O)cc2[O-])oc2cc(O)cc([O-])c12.O=c1c([OH2+])c(-c2ccc(O)cc2[O-])oc2cc(O)cc([O-])c12.[Ti+4] | > 100 | > 100 | > 100 |  | > 100 |  | > 100 |  | > 100 | > 100 |  | > 100 |  |  |  |  | > 100 | > 100 | > 100
CCN1CCC(O)(c2ccc(O)cc2)C(C(=O)c2ccc(O)cc2)C1 (stereo not given) | 46 | > 100 | 51.1 | 71 | 36 | > 100 |  |  | 30.9 | 68.8 | 60 | 33.4 | 32.9 |  |  |  |  |  | 
O=C1O/C(=C\c2ccc(O)cc2)C(c2ccc(O)c(Cl)c2)=C1Cl | > 100 | 94.7 | > 100 | 97.6 | > 100 | > 100 | 77.4 | 89.9 | > 100 | > 100 | > 100 | > 100 | > 100 |  |  |  |  |  | 
CCOC(=O)C(=O)NC12CC3CC(CC(C3)C1)C2 |  | > 100 | > 100 |  | > 100 | > 100 | > 100 | > 100 | > 100 | > 100 |  | > 100 |  |  |  |  |  |  | 
O=[N+]([O-])C(=C/c1cccs1)/C(=C\c1cccs1)[N+](=O)[O-] | 1.3 | 0.139 | > 32.4 | 5.4 |  |  | 6.46 | 2.58 | 2.53 | 7.41 | 3.53 | 1.14 | 7.74 |  |  |  |  |  | 
CC[C@H](C)[C@H](NC(=O)[C@@]1(O)[C@H](O)[C@]2(CC)C=CCN3CC[C@@]4(c5cc(Br)c(OC)cc5N(C)[C@@H]14)[C@@H]32)C(=O)OC | > 100 | 70.8 | > 100 | > 100 | > 100 | > 100 | > 100 | 87.7 | 28.9 | 50 | > 100 | 34.9 | > 100 |  |  |  |  |  | 
COC(=O)C1=NN2c3ccccc3CN([C@@H](C)c3ccccc3)C(=O)[C@@H]2[C@H]1c1ccccc1 | > 100 | > 100 | > 100 | > 100 | > 100 | > 100 | > 100 | > 100 | > 100 | > 100 | > 100 |  | > 100 |  |  |  |  |  | 
